Consider twelve molecules from ChEMBL document CHEMBL1201862, “PubChem BioAssay data set” (2004).

Test systems include A498; ACHN; CCRF-CEM; DU-145; HCC 2998; HCT-116; HCT-15; HOP-92; Hs-578T; K562; MCF7; NCI/ADR-RES; PC-3; RXF 393; SF-539; T47D; UACC-257; UO-31; CAKI-1; BT-549.
Holding throughout (assay): NCI tumour cell line growth inhibition, 48 h

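Exposure lasted 48 hours, with cells grown in 96-well plates and compounds tested at five concentrations. The concentration for 50% growth inhibition is given as GI50.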 Activity calls are given as the source filed them. Cut-off read from the data, not from the text of the source: active = GI50 up to about 1.1 µM and inactive = higher.

Take `Cc1cccc2c1C(=O)C1(Cc3ccccc3C1=O)C2` (stereo not drawn): the GI50 in the assay on A498 was 47.1 µM (inactive); with ACHN it was > 100 µM (inactive); in the assay with CCRF-CEM, > 100 µM (inactive); in the assay with DU-145, > 100 µM (inactive); in the assay on HCC 2998, > 100 µM (inactive); in the assay with HCT-116, > 100 µM (inactive). The GI50 was over 100 µM in the assay with HCT-15; > 100 µM (inactive) with HOP-92; 48.3 µM (inactive) with Hs-578T; > 100 µM (inactive) in the assay with K562; > 100 µM (inactive) in the assay on MCF7; 87.1 µM (inactive) in the assay on NCI/ADR-RES. The GI50 with PC-3 is > 100 µM (inactive); in the assay with RXF 393 it was > 100 µM (inactive); in the assay with SF-539, > 100 µM (inactive); with T47D, 52.8 µM (inactive); in the assay on UACC-257, > 100 µM (inactive); in the assay with UO-31, 28.9 µM (inactive).
For the molecule `OCN(CO)c1ccc2c(c1)Cc1cc(F)ccc1-2`, the GI50 in the assay on ACHN was 17.6 µM (inactive); in the assay with CAKI-1 it was 20 µM (inactive); with DU-145, 23.2 µM (inactive); with HCT-116, 39.5 µM (inactive); in the assay with HCT-15, 19.2 µM; in the assay with Hs-578T, 12 µM (inactive). In addition, the GI50 in the assay with K562 was 20.9 µM (inactive); with MCF7 it was 18.6 µM (inactive); with NCI/ADR-RES, 20.2 µM (inactive); in the assay on PC-3, 16.7 µM (inactive); in the assay on RXF 393, 24 µM (inactive); with SF-539, 22.3 µM (inactive). Also, the values for the GI50 in the assay with T47D, in the assay with UACC-257 and with UO-31 were 17.8 µM (inactive), 18.7 µM (inactive) and 19.6 µM (inactive), respectively.
Turning to `CC(C)(C)[Si](C)(C)OCC1OC(n2ccc(=O)[nH]c2=O)C(O[Si](C)(C)C(C)(C)C)/C1=N/O` (stereo not drawn), the GI50 with A498 is 4.97 µM (inactive); in the assay with ACHN, 3.2 µM (inactive); in the assay on BT-549, 7.6 µM (inactive); with CAKI-1 it was 7.71 µM (inactive); in the assay with CCRF-CEM, 3.29 µM (inactive); in the assay with DU-145, 9.29 µM (inactive). Besides, the GI50 in the assay on HCC 2998 is 3.37 µM (inactive); in the assay on HCT-116, 2.45 µM (inactive); with HCT-15 it was 3.26 µM; in the assay with HOP-92, 2.77 µM (inactive); in the assay on K562, 2.77 µM (inactive); in the assay with MCF7, 3.47 µM (inactive). For the same molecule, the GI50 in the assay with NCI/ADR-RES was 2.49 µM (inactive); with PC-3 it was 3.99 µM (inactive); in the assay with RXF 393, 8.39 µM (inactive); in the assay with SF-539 it was 3.11 µM (inactive); with T47D, 6.22 µM (inactive); with UACC-257 it was 4.17 µM (inactive). In addition, the GI50 in the assay on UO-31 is 3.61 µM (inactive).
For the molecule `CC(C)(SCc1ccccc1)C(N)C(=O)O` (stereo not drawn), the GI50 in the assay on A498, with ACHN, with BT-549, in the assay with CAKI-1, in the assay with CCRF-CEM and in the assay on DU-145 was > 100 µM (inactive) in each case. The GI50 with HCT-116 is > 100 µM (inactive); with HCT-15, over 100 µM; with HOP-92 it was > 100 µM (inactive); in the assay on K562 it was > 100 µM (inactive); in the assay with NCI/ADR-RES it was > 100 µM (inactive); in the assay with PC-3, > 100 µM (inactive). Further, the GI50 in the assay with RXF 393, with T47D, with UACC-257 and with UO-31 was > 100 µM (inactive) each time.
With `Cn1cc(NC(=O)c2cc(NC(=O)CCCCCCCC(=O)Nc3cc(C(=O)Nc4cc(C(=O)NCCC(=N)N)n(C)c4)n(C)c3)cn2C)cc1C(=O)NCCC(=N)N`, the GI50 with A498 was 13.7 µM (inactive); in the assay on ACHN it was 58.1 µM (inactive); in the assay with CAKI-1 it was 18.8 µM (inactive); in the assay on CCRF-CEM it was 25.3 µM (inactive); in the assay with HCC 2998, 16.1 µM (inactive); in the assay on HCT-116 it was 17.9 µM (inactive). In addition, the GI50 with HCT-15 was over 100 µM; with HOP-92, > 100 µM (inactive); in the assay on K562 it was 11 µM (inactive); with RXF 393, 17 µM (inactive); in the assay with SF-539, 17.7 µM (inactive); in the assay with UACC-257 it was 5.7 µM (inactive). Also, the GI50 in the assay with UO-31 was > 100 µM (inactive).
As to `CO[C@]12CC(=O)C3(C(C[C@H]4CC5CCC6=CC(=O)CC[C@]6(OC(C)=O)C5C[C@@]43C)C1)C1C[C@H]3[C@@H]4CCC5=CC(=O)CC[C@]5(OC(C)=O)[C@H]4CC[C@]3(C)C12` (stereo partly drawn), the GI50 in the assay on A498, in the assay with ACHN, in the assay with CAKI-1, in the assay with CCRF-CEM, in the assay with DU-145 and in the assay on HCC 2998 was > 100 µM (inactive) in each case. Besides, the GI50 in the assay with HCT-116 is > 100 µM (inactive); with HCT-15 it was over 100 µM; in the assay on HOP-92, > 100 µM (inactive); in the assay on Hs-578T it was > 100 µM (inactive); in the assay on K562, > 100 µM (inactive); with MCF7, > 100 µM (inactive). For the same molecule, the GI50 with NCI/ADR-RES, with PC-3, with SF-539, with T47D, in the assay on UACC-257 and in the assay on UO-31 was > 100 µM (inactive) throughout.
With `Oc1ccc(Cl)cc1-c1cc(-c2ccccc2)nc(S)n1`, the GI50 is 41.6 µM (inactive) in the assay on A498; 30.3 µM (inactive) in the assay with ACHN; > 100 µM (inactive) in the assay with CAKI-1; > 100 µM (inactive) in the assay on CCRF-CEM; > 100 µM (inactive) in the assay on DU-145; > 100 µM (inactive) in the assay with HCC 2998. Moreover, the GI50 is 28.8 µM (inactive) with HCT-116; 94 µM with HCT-15; 19.2 µM (inactive) in the assay with HOP-92; 29.2 µM (inactive) with Hs-578T; > 100 µM (inactive) in the assay with K562; > 100 µM (inactive) in the assay with MCF7. For the same molecule, the GI50 in the assay on NCI/ADR-RES was 97.9 µM (inactive); with PC-3, > 100 µM (inactive); with RXF 393 it was 71.3 µM (inactive); in the assay on SF-539, 42.6 µM (inactive); in the assay with T47D, > 100 µM (inactive); in the assay on UACC-257, > 100 µM (inactive). Further, the GI50 in the assay with UO-31 was 24 µM (inactive).
As for `CCCc1nc(NC#N)nc(C(=O)NC23CC4CC(CC(C4)C2)C3)c1C`, the GI50 in the assay with A498, with ACHN, in the assay on CAKI-1, in the assay on CCRF-CEM, in the assay on HCC 2998 and in the assay on HCT-116 was > 100 µM (inactive) in each case. Further, the GI50 in the assay on HCT-15 is over 100 µM; with HOP-92 it was > 100 µM (inactive); in the assay on K562, > 100 µM (inactive); with RXF 393 it was > 100 µM (inactive); with SF-539, > 100 µM (inactive); in the assay with UACC-257, > 100 µM (inactive). Besides, the GI50 in the assay on UO-31 was > 100 µM (inactive).
Consider `CC(C)(O)/C=C\P(C)(=O)c1ccccc1` (stereo not drawn), for which the GI50 in the assay with ACHN was > 100 µM (inactive); in the assay on CAKI-1, > 100 µM (inactive); in the assay on DU-145 it was > 100 µM (inactive); in the assay on HCC 2998 it was > 100 µM (inactive); in the assay with HCT-116 it was > 100 µM (inactive); in the assay on HCT-15 it was over 100 µM. Also, the GI50 with HOP-92, in the assay with Hs-578T, in the assay with K562, with MCF7, in the assay on NCI/ADR-RES and in the assay on PC-3 was > 100 µM (inactive) throughout. In addition, the GI50 in the assay on RXF 393, with SF-539, in the assay on T47D and in the assay with UACC-257 was > 100 µM (inactive) throughout.
Regarding `COc1nc2ccc(COc3ccc(C(=O)O)cc3)cc2nc1OC`, the GI50 was 95.7 µM (inactive) with A498; 80.4 µM (inactive) with ACHN; 93.3 µM (inactive) with CAKI-1; 36.6 µM (inactive) in the assay with CCRF-CEM; > 100 µM (inactive) with DU-145; 58.2 µM (inactive) in the assay on HCC 2998. Also, the GI50 with HCT-116 is 39.9 µM (inactive); in the assay with HCT-15, 65.6 µM; with HOP-92, 47.5 µM (inactive); in the assay with K562, 67.1 µM (inactive); with MCF7, > 100 µM (inactive); in the assay with NCI/ADR-RES it was 88.1 µM (inactive). The GI50 in the assay on PC-3 was 71.4 µM (inactive); in the assay with SF-539 it was 45.5 µM (inactive); in the assay with T47D, > 100 µM (inactive); in the assay on UACC-257, > 100 µM (inactive); in the assay on UO-31, > 100 µM (inactive).
`CC(=O)OC1CCC2C3CCc4c(C)ccc(OS(=O)(=O)c5ccccc5)c4C3CCC12C` (stereo not drawn): the GI50 was 32.5 µM (inactive) in the assay with A498; 35.9 µM (inactive) in the assay on ACHN; 23.7 µM (inactive) with BT-549; 24 µM (inactive) in the assay on CAKI-1; 19.1 µM (inactive) in the assay with CCRF-CEM; 33.1 µM (inactive) in the assay with DU-145. Besides, the GI50 with HCC 2998 is 64.9 µM (inactive); with HCT-116, 3.37 µM (inactive); with HCT-15, 7.73 µM; in the assay on HOP-92, 6.55 µM (inactive); with K562 it was 5.69 µM (inactive); with MCF7, 16.2 µM (inactive). Further, the GI50 in the assay with PC-3 was 5.57 µM (inactive); in the assay on RXF 393, 31.1 µM (inactive); with UACC-257 it was 73.3 µM (inactive); in the assay on UO-31 it was 21.9 µM (inactive).
Take `CC#N.O[C@@H]1CCCC[C@H]1O.O[C@@H]1CCCC[C@H]1O.[TeH2]`: the GI50 in the assay with A498 was > 100 µM (inactive); in the assay with ACHN it was 46.3 µM (inactive); in the assay on CAKI-1, > 100 µM (inactive); in the assay with CCRF-CEM, 20.2 µM (inactive); with HCC 2998, > 100 µM (inactive); with HCT-116 it was 13.4 µM (inactive). Moreover, the GI50 with HCT-15 was 18.1 µM; in the assay on HOP-92 it was 26.2 µM (inactive); in the assay on K562, 25.8 µM (inactive); with RXF 393, > 100 µM (inactive); in the assay with SF-539, > 100 µM (inactive); in the assay with UACC-257 it was > 100 µM (inactive). In addition, the GI50 in the assay on UO-31 is 47 µM (inactive).
